For 32 molecules, IC50 results are on record in patent US7226944B2, “Taxanes having a C7 carbonate substituent” (FSU Research Foundation, Inc., priority 2000, dated 2007).

For this test, the system named is HCT116. Put plainly: In vitro cytotoxicity measured by the cell colony formation assay. It counts as cell-based. Conditions: HCT116 cells; drug concentration producing 50% inhibition of colony formation; 72 h with drug at 37° C., colonies counted after 7 days; read-out: IN VITRO ID 50 (nm) HCT116. How it is done: Four hundred cells (HCT116) were plated in 60 mm Petri dishes containing 2.7 mL of medium (modified McCoy's 5a medium containing 10% fetal bovine serum and 100 units/mL penicillin and 100 µg/mL streptomycin). The cells were incubated in a CO2 incubator at 37° C. for 5 h for attachment to the bottom of Petri dishes. The compounds identified in Example 2 were made up fresh in medium at ten times the final concentration, and then 0.3 mL of this stock solution was added to the 2.7 mL of medium in the dish. The cells were then incubated with drugs for 72 h at 37° C. At the end of incubation the drug-containing media were decanted, the dishes were rinsed with 4 mL of Hank's Balance Salt Solution (HBSS), 5 mL of fresh medium was added, and the dishes were returned to the incubator for colony formation. The cell colonies were counted using a colony counter after incubation for 7 days.
In the case of `COC(=O)O[C@H]1C[C@H]2OC[C@@]2(OC(C)=O)C2[C@H](OC(=O)c3ccccc3)[C@]3(O)C[C@H](OC(=O)[C@H](O)[C@@H](NC(=O)OC(C)C)c4cccs4)C(C)=C([C@@H](O)C(=O)[C@@]21C)C3(C)C` (some centres unmarked) [Compound 4144], the IC50 is below 1 nM.
The result for `CCOC(=O)O[C@H]1C[C@H]2OC[C@@]2(OC(C)=O)C2[C@H](OC(=O)c3ccccc3)[C@]3(O)C[C@H](OC(=O)[C@H](O)[C@@H](NC(=O)OC(C)C)c4cccs4)C(C)=C([C@@H](O)C(=O)[C@@]21C)C3(C)C` (some centres unmarked) [Compound 4151] reads below 1 nM.
The result for `CCOC(=O)O[C@H]1C[C@H]2OC[C@@]2(OC(C)=O)C2[C@H](OC(=O)c3ccccc3)[C@]3(O)C[C@H](OC(=O)[C@H](O)[C@@H](NC(=O)C=C(C)C)c4cccs4)C(C)=C([C@@H](O)C(=O)[C@@]21C)C3(C)C` (some centres unmarked) [Compound 4164] reads below 1 nM; that for `CCOC(=O)O[C@H]1C[C@H]2OC[C@@]2(OC(C)=O)C2[C@H](OC(=O)c3ccccc3)[C@]3(O)C[C@H](OC(=O)[C@H](O)[C@@H](NC(=O)c4ccccc4)c4cccs4)C(C)=C([C@@H](O)C(=O)[C@@]21C)C3(C)C` (some centres unmarked) [Compound 4188], below 10 nM.
The result for `COC(=O)O[C@H]1C[C@H]2OC[C@@]2(OC(C)=O)C2[C@H](OC(=O)c3ccccc3)[C@]3(O)C[C@H](OC(=O)[C@H](O)[C@@H](NC(=O)c4ccco4)c4cccs4)C(C)=C([C@@H](O)C(=O)[C@@]21C)C3(C)C` (some centres unmarked) [Compound 4222] reads below 1 nM; that for `CCOC(=O)O[C@H]1C[C@H]2OC[C@@]2(OC(C)=O)C2[C@H](OC(=O)c3ccccc3)[C@]3(O)C[C@H](OC(=O)[C@H](O)[C@@H](NC(=O)OC(C)(C)C)c4cccs4)C(C)=C([C@@H](O)C(=O)[C@@]21C)C3(C)C` (some centres unmarked) [Compound 4234], below 1 nM; that for `COC(=O)O[C@H]1C[C@H]2OC[C@@]2(OC(C)=O)C2[C@H](OC(=O)c3ccccc3)[C@]3(O)C[C@H](OC(=O)[C@H](O)[C@@H](NC(=O)C=C(C)C)c4cccs4)C(C)=C([C@@H](O)C(=O)[C@@]21C)C3(C)C` (some centres unmarked) [Compound 4244], below 1 nM.
Turning to `CCOC(=O)O[C@H]1C[C@H]2OC[C@@]2(OC(C)=O)C2[C@H](OC(=O)c3ccccc3)[C@]3(O)C[C@H](OC(=O)[C@H](O)[C@@H](NC(=O)c4ccco4)c4cccs4)C(C)=C([C@@H](O)C(=O)[C@@]21C)C3(C)C` (some centres unmarked) [Compound 4304], the IC50 was below 10 nM.
The result for `COC(=O)O[C@H]1C[C@H]2OC[C@@]2(OC(C)=O)C2[C@H](OC(=O)c3ccccc3)[C@]3(O)C[C@H](OC(=O)[C@H](O)[C@@H](NC(=O)OCC(C)C)c4cccs4)C(C)=C([C@@H](O)C(=O)[C@@]21C)C3(C)C` (some centres unmarked) [Compound 4355] reads below 1 nM; that for `CCOC(=O)O[C@H]1C[C@H]2OC[C@@]2(OC(C)=O)C2[C@H](OC(=O)c3ccccc3)[C@]3(O)C[C@H](OC(=O)[C@H](O)[C@@H](NC(=O)OCC(C)C)c4cccs4)C(C)=C([C@@H](O)C(=O)[C@@]21C)C3(C)C` (some centres unmarked) [Compound 4363], below 10 nM.
For `COC(=O)O[C@H]1C[C@H]2OC[C@@]2(OC(C)=O)C2[C@H](OC(=O)c3ccccc3)[C@]3(O)C[C@H](OC(=O)[C@H](O)[C@@H](NC(=O)c4ccccc4)c4cccs4)C(C)=C([C@@H](O)C(=O)[C@@]21C)C3(C)C` (some centres unmarked) [Compound 4411] the value was below 1 nM; for `COC(=O)O[C@H]1C[C@H]2OC[C@@]2(OC(C)=O)C2[C@H](OC(=O)c3ccccc3)[C@]3(O)C[C@H](OC(=O)[C@H](O)[C@@H](NC(=O)c4cccs4)c4cccs4)C(C)=C([C@@H](O)C(=O)[C@@]21C)C3(C)C` (some centres unmarked) [Compound 4424], below 1 nM.
Consider `COC(=O)O[C@H]1C[C@H]2OC[C@@]2(OC(C)=O)C2[C@H](OC(=O)c3ccccc3)[C@]3(O)C[C@H](OC(=O)[C@H](O)[C@@H](NC(=O)OC(C)(C)C)c4ccoc4)C(C)=C([C@@H](O)C(=O)[C@@]21C)C3(C)C` (some centres unmarked) [Compound 4434], for which the IC50 is below 1 nM.
The result for `CCOC(=O)O[C@H]1C[C@H]2OC[C@@]2(OC(C)=O)C2[C@H](OC(=O)c3ccccc3)[C@]3(O)C[C@H](OC(=O)[C@H](O)[C@@H](NC(=O)c4cccs4)c4cccs4)C(C)=C([C@@H](O)C(=O)[C@@]21C)C3(C)C` (some centres unmarked) [Compound 4455] reads below 1 nM.
For `CCOC(=O)O[C@H]1C[C@H]2OC[C@@]2(OC(C)=O)C2[C@H](OC(=O)c3ccccc3)[C@]3(O)C[C@H](OC(=O)[C@H](O)[C@@H](NC(=O)OC(C)(C)C)c4ccoc4)C(C)=C([C@@H](O)C(=O)[C@@]21C)C3(C)C` (some centres unmarked) [Compound 4464], the IC50 was below 1 nM.
The result for `COC(=O)O[C@H]1C[C@H]2OC[C@@]2(OC(C)=O)C2[C@H](OC(=O)c3ccccc3)[C@]3(O)C[C@H](OC(=O)[C@H](O)[C@@H](NC(=O)OC(C)(C)C)c4ccsc4)C(C)=C([C@@H](O)C(=O)[C@@]21C)C3(C)C` (some centres unmarked) [Compound 4474] reads below 1 nM.
For `COC(=O)O[C@H]1C[C@H]2OC[C@@]2(OC(C)=O)C2[C@H](OC(=O)c3ccccc3)[C@]3(O)C[C@H](OC(=O)[C@H](O)[C@H](C=C(C)C)NC(=O)OC(C)(C)C)C(C)=C([C@@H](O)C(=O)[C@@]21C)C3(C)C` (some centres unmarked) [Compound 4484] the value was below 1 nM; for `CCOC(=O)O[C@H]1C[C@H]2OC[C@@]2(OC(C)=O)C2[C@H](OC(=O)c3ccccc3)[C@]3(O)C[C@H](OC(=O)[C@H](O)[C@@H](NC(=O)OC(C)(C)C)c4ccsc4)C(C)=C([C@@H](O)C(=O)[C@@]21C)C3(C)C` (some centres unmarked) [Compound 4500], below 1 nM.
For `CC(=O)O[C@H]1C[C@H]2OC[C@@]2(OC(C)=O)C2[C@H](OC(=O)c3ccccc3)[C@]3(O)C[C@H](OC(=O)[C@H](O)[C@@H](NC(=O)OCC(C)C)c4ccsc4)C(C)=C([C@@H](O)C(=O)[C@@]21C)C3(C)C` (some centres unmarked) [Compound 4515] the value was below 10 nM.
As for `CCOC(=O)O[C@H]1C[C@H]2OC[C@@]2(OC(C)=O)C2[C@H](OC(=O)c3ccccc3)[C@]3(O)C[C@H](OC(=O)[C@H](O)[C@H](C=C(C)C)NC(=O)OC(C)(C)C)C(C)=C([C@@H](O)C(=O)[C@@]21C)C3(C)C` (some centres unmarked) [Compound 4524], the IC50 was below 1 nM.
`COC(=O)O[C@H]1C[C@H]2OC[C@@]2(OC(C)=O)C2[C@H](OC(=O)c3ccccc3)[C@]3(O)C[C@H](OC(=O)[C@H](O)[C@@H](NC(=O)OC(C)(C)C)c4ccco4)C(C)=C([C@@H](O)C(=O)[C@@]21C)C3(C)C` (some centres unmarked) [Compound 4533]: the IC50 is below 1 nM.
For the molecule `CC(=O)O[C@H]1C[C@H]2OC[C@@]2(OC(C)=O)C2[C@H](OC(=O)c3ccccc3)[C@]3(O)C[C@H](OC(=O)[C@H](O)[C@@H](NC(=O)OC(C)(C)C)C4CC4)C(C)=C([C@@H](O)C(=O)[C@@]21C)C3(C)C` (some centres unmarked) [Compound 4555], the IC50 was below 1 nM.
For `COC(=O)O[C@H]1C[C@H]2OC[C@@]2(OC(C)=O)C2[C@H](OC(=O)c3ccccc3)[C@]3(O)C[C@H](OC(=O)[C@H](O)[C@@H](NC(=O)OC(C)(C)C)C4CC4)C(C)=C([C@@H](O)C(=O)[C@@]21C)C3(C)C` (some centres unmarked) [Compound 4566] the value was below 1 nM.
For `COC(=O)O[C@H]1C[C@H]2OC[C@@]2(OC(C)=O)C2[C@H](OC(=O)c3ccccc3)[C@]3(O)C[C@H](OC(=O)[C@H](O)[C@@H](NC(=O)OCC(C)C)c4ccoc4)C(C)=C([C@@H](O)C(=O)[C@@]21C)C3(C)C` (some centres unmarked) [Compound 4584] the value was below 10 nM; for `CCOC(=O)O[C@H]1C[C@H]2OC[C@@]2(OC(C)=O)C2[C@H](OC(=O)c3ccccc3)[C@]3(O)C[C@H](OC(=O)[C@H](O)[C@@H](NC(=O)OCC(C)C)c4ccoc4)C(C)=C([C@@H](O)C(=O)[C@@]21C)C3(C)C` (some centres unmarked) [Compound 4624], below 10 nM.
For `COC(=O)O[C@H]1C[C@H]2OC[C@@]2(OC(C)=O)C2[C@H](OC(=O)c3ccccc3)[C@]3(O)C[C@H](OC(=O)[C@H](O)[C@H](C=C(C)C)NC(=O)OCC(C)C)C(C)=C([C@@H](O)C(=O)[C@@]21C)C3(C)C` (some centres unmarked) [Compound 4644] the value was below 10 nM; for `COC(=O)O[C@H]1C[C@H]2OC[C@@]2(OC(C)=O)C2[C@H](OC(=O)c3ccccc3)[C@]3(O)C[C@H](OC(=O)[C@H](O)[C@@H](NC(=O)OCC(C)C)c4ccco4)C(C)=C([C@@H](O)C(=O)[C@@]21C)C3(C)C` (some centres unmarked) [Compound 4656], below 1 nM.
With `COC(=O)O[C@H]1C[C@H]2OC[C@@]2(OC(C)=O)C2[C@H](OC(=O)c3ccccc3)[C@]3(O)C[C@H](OC(=O)[C@H](O)[C@@H](NC(=O)OCC(C)C)c4ccsc4)C(C)=C([C@@H](O)C(=O)[C@@]21C)C3(C)C` (some centres unmarked) [Compound 4674], the IC50 was below 1 nM.
The result for `CCOC(=O)O[C@H]1C[C@H]2OC[C@@]2(OC(C)=O)C2[C@H](OC(=O)c3ccccc3)[C@]3(O)C[C@H](OC(=O)[C@H](O)[C@H](C=C(C)C)NC(=O)OCC(C)C)C(C)=C([C@@H](O)C(=O)[C@@]21C)C3(C)C` (some centres unmarked) [Compound 4688] reads below 10 nM; that for `CCOC(=O)O[C@H]1C[C@H]2OC[C@@]2(OC(C)=O)C2[C@H](OC(=O)c3ccccc3)[C@]3(O)C[C@H](OC(=O)[C@H](O)[C@@H](NC(=O)OCC(C)C)c4ccco4)C(C)=C([C@@H](O)C(=O)[C@@]21C)C3(C)C` (some centres unmarked) [Compound 4696], below 1 nM; that for `C/C=C/C(=O)N[C@@H](c1ccco1)[C@@H](O)C(=O)O[C@H]1C[C@@]2(O)[C@@H](OC(=O)c3ccccc3)C3[C@](C)(C(=O)[C@H](O)C(=C1C)C2(C)C)[C@@H](OC(=O)OC)C[C@H]1OC[C@@]31OC(C)=O` (some centres unmarked) [Compound 4744], below 1 nM.
The result for `C/C=C/C(=O)N[C@@H](c1cccs1)[C@@H](O)C(=O)O[C@H]1C[C@@]2(O)[C@@H](OC(=O)c3ccccc3)C3[C@](C)(C(=O)[C@H](O)C(=C1C)C2(C)C)[C@@H](OC(=O)OC)C[C@H]1OC[C@@]31OC(C)=O` (some centres unmarked) [Compound 4766] reads below 1 nM.
